Reference: PubChem BioAssay AID504563 (Southern Research Specialized Biocontainment Screening …, 2011)

Test system: HIV-1 CXCR4-tropic in human PBMC, supernatant RT activity
Test: inhibitors of CXCR4-tropic HIV-1 replication in PBMCs, dose response, cell-based, human PBMC, set 2 (AID 504563)

SMILES	IC50
COc1ccccc1Cn1c(O)cc2nn(-c3nc4ccccc4s3)c(=O)c-2c1C	5.55 µM
Cc1c2c(=O)n(-c3nc4ccccc4s3)nc-2cc(O)n1CCc1ccc(O)cc1	1.85 µM
COc1ccc(CCn2c(O)cc3nn(-c4nc5ccccc5s4)c(=O)c-3c2C)cc1	12.6 µM
Cc1c2c(=O)n(-c3nc4ccccc4s3)nc-2cc(O)n1Cc1ccccc1Cl	7.26 µM
Cc1c2c(=O)n(-c3nc4ccccc4s3)nc-2cc(O)n1CCc1cccs1	3.77 µM
Cc1c2c(=O)n(-c3nc4ccccc4s3)nc-2cc(O)n1CCC(C)C	5.25 µM
Cc1c2c(=O)n(-c3nc4ccccc4s3)nc-2cc(O)n1Cc1ccccc1	3.21 µM
Cc1c2c(=O)n(-c3nc4ccccc4s3)nc-2cc(O)n1Cc1ccncc1	1.99 µM
Cc1c2c(=O)n(-c3nc4ccccc4s3)nc-2cc(O)n1C1CC1	0.76 µM
Cc1c2c(=O)n(-c3nc4ccccc4s3)nc-2cc(O)n1Cc1ccc(F)cc1	3.98 µM
COc1ccc(Cn2c(O)cc3nn(-c4nc5ccccc5s4)c(=O)c-3c2C)cc1	2.86 µM
Cc1c2c(=O)n(-c3nc4ccccc4s3)nc-2cc(O)n1Cc1cccnc1	1.51 µM
Cc1c2c(=O)n(-c3nc4ccccc4s3)nc-2cc(O)n1Cc1cccs1	1.83 µM
